Earlier results on two compounds are cited in patent publication US7825150B2, “Compositions and methods for treating immunological and inflammatory diseases and disorders” (Lexicon Pharmaceuticals, Inc., priority 2007, dated 2010).

Read-outs that look alike come from different tables or passages of the source.

In data set [1] the test system is lymphocytes. Particulars: administration to rats.
Data set [2] deals with lymphocytes. Particulars: administration to mice.
For data set [3], the target named is T1, S1P lyase (Mus musculus, UniProt Q8R0X7).
T1 construct: host or cells: mice, in vivo (endogenous enzyme)
T1 sequence (Q8R0X7 1-568): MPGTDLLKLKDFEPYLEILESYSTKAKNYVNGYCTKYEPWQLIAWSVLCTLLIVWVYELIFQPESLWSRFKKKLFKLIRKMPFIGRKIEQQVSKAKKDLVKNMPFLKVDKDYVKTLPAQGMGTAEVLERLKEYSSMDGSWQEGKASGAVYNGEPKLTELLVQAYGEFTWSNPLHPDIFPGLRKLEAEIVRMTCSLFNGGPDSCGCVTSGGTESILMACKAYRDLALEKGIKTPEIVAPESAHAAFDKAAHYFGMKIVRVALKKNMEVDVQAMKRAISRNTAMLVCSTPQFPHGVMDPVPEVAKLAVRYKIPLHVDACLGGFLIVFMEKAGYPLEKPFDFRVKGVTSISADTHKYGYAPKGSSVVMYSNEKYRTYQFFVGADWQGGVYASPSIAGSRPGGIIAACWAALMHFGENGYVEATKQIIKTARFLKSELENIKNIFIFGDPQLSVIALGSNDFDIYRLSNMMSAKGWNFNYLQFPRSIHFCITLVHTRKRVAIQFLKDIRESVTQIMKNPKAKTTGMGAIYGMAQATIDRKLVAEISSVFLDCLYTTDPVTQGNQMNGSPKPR
As to conditions: administered to mice; Schwab et al. 2005.

For data set [4] the following is noted: humans.
Data set [5] relates to adjuvant-induced arthritis (AA) model. As to conditions: therapeutic setting, established disease state; majority of published studies.

For the compound `CC(=O)c1nc(C(O)C(O)C(O)CO)c[nH]1` (stereo not shown) [THI, 2-acetyl-4-tetrahydroxybutylimidazole], the “accumulation of mature T cells in the thymus” value in data set [1] and in data set [2] was “causes the accumulation of mature T cells in the thymus” each time. The lymphopenia entry in data set [1] and in data set [2] was “induces lymphopenia” each time. Also, the S1P lyase activity result in data set [3] was “inhibits S1P lyase activity”. Besides, the immunological effects entry in data set [4] is on record as “no immunological effects”.

In the case of `CN(Cc1cnc2nc(N)nc(N)c2n1)c1ccc(C(=O)N[C@@H](CCC(=O)O)C(=O)O)cc1` [MTX, methotrexate], in data set [5], the “effectiveness of MTX treatment alone in this model” value is “not effective”.
